These results are taken from US11534398B2, “Inhaled preparation of isoglycyrrhizic acid or salt thereof, and use in preparing drugs for treating respiratory system diseases” (priority 2016, dated 2022).

Structures are written as SMILES.

A short description of this data set: Particle size of micronized magnesium isoglycyrrhizinate. The class given is physicochemical. To be noted: micronized active ingredient. The source says: The magnesium isoglycyrrhizinate was micronized to obtain samples having the following different particle size ranges.
For the compound `CC1(C)[C@@H](O[C@H]2O[C@H](C(=O)[O-])[C@@H](O)[C@H](O)[C@H]2O[C@@H]2O[C@H](C(=O)[O-])[C@@H](O)[C@H](O)[C@H]2O)CC[C@]2(C)[C@H]3C(=O)C=C4[C@H]5C[C@@](C)(C(=O)O)CC[C@]5(C)CC[C@@]4(C)[C@]3(C)CC[C@@H]12.[Mg+2]` [Large particle size, magnesium isoglycyrrhizinate], the X10 was 1.47 μm and the X50 was found to be 5.75 μm.
In turn, `CC1(C)[C@@H](O[C@H]2O[C@H](C(=O)[O-])[C@@H](O)[C@H](O)[C@H]2O[C@@H]2O[C@H](C(=O)[O-])[C@@H](O)[C@H](O)[C@H]2O)CC[C@]2(C)[C@H]3C(=O)C=C4[C@H]5C[C@@](C)(C(=O)O)CC[C@]5(C)CC[C@@]4(C)[C@]3(C)CC[C@@H]12.[Mg+2]` [Medium particle size, magnesium isoglycyrrhizinate] registered an X10 of 1.38 μm and an X50 of 5.08 μm.
In turn, `CC1(C)[C@@H](O[C@H]2O[C@H](C(=O)[O-])[C@@H](O)[C@H](O)[C@H]2O[C@@H]2O[C@H](C(=O)[O-])[C@@H](O)[C@H](O)[C@H]2O)CC[C@]2(C)[C@H]3C(=O)C=C4[C@H]5C[C@@](C)(C(=O)O)CC[C@]5(C)CC[C@@]4(C)[C@]3(C)CC[C@@H]12.[Mg+2]` [Small particle size, magnesium isoglycyrrhizinate] had an X10 of 0.58 μm and an X50 of 2.03 μm.
